Experimental data published in patent US11149046B2, “Antibacterial sideromycins” (Hsiri Therapeutics, Inc., priority 2014, dated 2021).
Converted amounts (≈) assume the structure as drawn. “Also recorded” adds a separate entry of the source. Like-named read-outs stand apart in the source and are kept apart here. Values belong to the molecule of their own block, whether it stands above or below them.

What was measured:
[1] = system: Pa-Da-1304 CF patient isolate; test: MIC determination; assay type: cell-based, Pseudomonas aeruginosa; settings: Pseudomonas aeruginosa; Table 6
Description: (§1) MIC (minimum inhibition concentration) is given in μM and AD (agar diffusion zones of inhibition are given in mm from Kirby-Bauer Petri dish growth inhibition studies).
We obtained a clinical isolate of Pseudomonas from a cystic fibrosis patient.

[2] = system: Pseudomonas aeruginosa 01 (Pa01); test: MIC determination; assay type: cell-based; settings: read-out: MIC
Description: (§2) Table 3 that was included in the first Example 4 section provides antibacterial data for the first synthetic sideromycins we prepared and studied. The second Example 4 section elaborated and expanded on that data with inclusion of representative antibacterial data in the text and associated pictures of Petri dish assays. MIC (minimum inhibition concentration) is given in μM and AD (agar diffusion zones of inhibition are given in mm from Kirby-Bauer Petri dish growth inhibition studies).

Pa6 = test: MIC determination; assay type: cell-based, Pseudomonas aeruginosa; settings: Pseudomonas aeruginosa; Table 6; read-out: MIC
Description: as §1

Pa4 = test: MIC determination; assay type: cell-based, Pseudomonas aeruginosa; settings: Pseudomonas aeruginosa; Table 6
Description: as §2

P. aeruginosa KW799/wt = test: MIC determination; assay type: cell-based, Pseudomonas aeruginosa; settings: read-out: MIC
Description: as §2

A. baumannii ATCC 17961 = test: MIC determination; assay type: cell-based, Acinetobacter baumannii; settings: read-out: MIC
Description: as §2

[3] = system: Acinetobacter baumannii ATCC 17961; test: Agar diffusion (Kirby-Bauer) assay, with and without hydrogel; assay type: cell-based; settings: for AD = agar diffusion inhibition zones: Table 5, head prints A. baumannii only
Description: as §2
We investigated whether the sideromycin absorbed in the gel be able to diffuse out of the gel and into the agar to effect antibacterial growth. As a control, the sideromycin alone, without gel, was added in a separate 9 mm well, as usual.
The second question was whether the sideromycin continue to be released and be able to effect bacterial growth inhibition over extended periods. Thus, additional identical agar plates were prepared and stored at 4° C. for 24, 48 and 72 hours to allow diffusion of the sideromycin (control and gel forms) into the agar before allowing the bacteria to grow in an incubator. Then after each time period, the Petri dishes were incubated at 37° C. for 20 hours to promote bacteria growth in the agar. […] The study has been extended to as long as 168 hours (one week) with retention of antibiotic effectiveness.

[4] = system: Pseudomonas aeruginosa KW799/61; assay type: cell-based; settings: for AD = agar diffusion inhibition zones: Table 5
Description: as §1

E. coli DC2 = test: Agar diffusion (Kirby-Bauer) assay; assay type: cell-based; settings: Table 5
Description: as §2

E. coli DC0 = test: Agar diffusion (Kirby-Bauer) assay; assay type: cell-based; settings: Table 5
Description: as §2

[5] = system: Pseudomonas aeruginosa KW799/wt; test: Agar diffusion (Kirby-Bauer) assay; assay type: cell-based
Description: as §2

[6] = system: strains of Pseudomonas and Acinetobacter; test: Antibacterial activity, general statements; assay type: cell-based; settings: general statements of the text
Method: Antibiotic activity was determined using agar diffusion assays against representative Gram-negative bacteria, including Pseudomonas aeruginosa (Pa6), and several multidrug resistant forms of Acinetobacter baumannii. Representative results are shown in Table 1 and a corresponding picture of an actual petri dish showing the agar diffusion results (FIG. 4). […].

SMILES: O=C(CCC(=O)N(CCCCNC(=O)c1cccc(O)c1O)CCCNC(=O)c1cccc(O)c1O)NCCCCCN(O)C(=O)CCCC(=O)NC(C(=O)NC1C(=O)N2C(C(=O)O)=C(Cl)CSC12)c1ccccc1 (stereo not drawn) [MG-1-285]
MIC (A. baumannii ATCC 17961): 0.025 µM (≈ 0.027 µg/mL)

SMILES: CC(=O)Oc1cccc(C(=O)NCCCCN(CC(=O)N[C@H](C(=O)N[C@@H]2C(=O)N3C(C(=O)O)=C(Cl)CC[C@H]23)c2ccccc2)C(=O)c2cccc(OC(C)=O)c2OC(C)=O)c1OC(C)=O [YML-1-45cr]
zones of inhibition (in words) ([3]; Acinetobacter, FIG. 8, 9, 10): zones comparable to or even larger than our first sideromycin, 21; also recorded: impressive zones of inhibition
AD = agar diffusion inhibition zones [3]: (AD = 18) mm
AD = agar diffusion inhibition zones [4]: (AD = 23) mm
zones of inhibition (in words) ([4]; outer membrane permeable mutant, FIG. 9 center panel): significant activity
AD = agar diffusion inhibition zones (E. coli DC2): (AD = 38) mm
AD = agar diffusion inhibition zones (E. coli DC0): (AD = 31) mm
AD = agar diffusion inhibition zones ([5]; Table 5): (AD = 18) mm
zones of inhibition (in words) ([5]; wild type Pseudomonas, FIG. 8, 9, 12): sizable zone of inhibition; also recorded: impressive zones of inhibition; also recorded: significant activity

SMILES: O=C(CN(CCCCNC(=O)c1cccc(O)c1O)C(=O)c1cccc(O)c1O)NC(C(=O)NC1C(=O)N2C(C(=O)O)=C(Cl)CSC12)c1ccccc1 (stereo not drawn) [YML-1-109]
MIC ([2]; Table 7): 1.56 µM (≈ 1.2 µg/mL)
antibacterial activity (in words) [6]: comparable to the loracarbef conjugate YML-1-91
MIC (P. aeruginosa KW799/wt; Table 7): 0.05 µM (≈ 0.0384 µg/mL)
MIC (A. baumannii ATCC 17961; Table 7): 0.05 µM (≈ 0.0384 µg/mL)

SMILES: CC(C)(C)OC(=O)NCCCCCN(O)C(=O)CCC(=O)N[C@@H](C(=O)N[C@@H]1C(=O)N2C1SC(C)(C)[C@@H]2C(=O)O)c1ccccc1 (stereo partly drawn) [YML-I-27]
AD = agar diffusion inhibition zones [3]: (AD = 17) mm
AD = agar diffusion inhibition zones [4]: (AD = 24) (AD = 24) mm
AD = agar diffusion inhibition zones (E. coli DC2): (AD = 26) mm
AD = agar diffusion inhibition zones (E. coli DC0): (AD = 0) mm

Other lines, results leading:

MIC [1]: > 50 µM
MIC ([2]; Pseudomonas aeruginosa, Table 6): > 50 µM
MIC (Pa6): > 50 µM
MIC (Pa4): > 50 µM
MIC (P. aeruginosa KW799/wt; Pseudomonas aeruginosa, KW799/WT, Table 6): 1.56 µM (≈ 1.86 µg/mL)
MIC (A. baumannii ATCC 17961; Acinetobacter baumannii, ATCC17961, Table 6, head prints A. baumannii only): 0.2 µM (≈ 0.238 µg/mL)
SMILES: CC(=O)Oc1cccc(C(=O)NCCCCN(CCCNC(=O)c2cccc(OC(C)=O)c2OC(C)=O)C(=O)CCC(=O)N[C@@H](CCCN(O)C(C)=O)C(=O)N[C@@H](C(=O)N[C@@H]2C(=O)N3C(C(=O)O)=C(Cl)CCC23)c2ccccc2)c1OC(C)=O (stereo partly drawn) [MG-1-185]

MIC (Pa6): > 50 µM
SMILES: CC(=O)Oc1cccc(C(=O)NCCCCN(CCCNC(=O)c2cccc(OC(C)=O)c2OC(C)=O)C(=O)CCC(=O)N[C@@H](CCCN(O)C(C)=O)C(=O)N[C@@H](C(=O)N[C@@H]2C(=O)N3C2SC(C)(C)[C@@H]3C(=O)O)c2ccccc2)c1OC(C)=O (stereo partly drawn) [MG-1-186]
